In patent US20260317324A1, “BIFUNCTIONAL COMPOUNDS FOR DEGRADING BRAF VIA UBIQUITIN PROTEOSOME PATHWAY” (Nurix Therapeutics, Inc., priority 2023, published 2026) one finds DC50 and Dmax data, which are given here for nine compounds.

Common to all, as to format: cell-based
One assay has as its target T1, BRAF G469A (Homo sapiens, UniProt P15056, G469A).
T1 construct: Horizon Discovery (HCT-116 BRAF−/− cells); host or cells: HCT-116 BRAF−/− cells, clone 34, lentiviral transduction
The assay can be described thus: BRAF HiBiT degradation assay, C-terminal HiBiT-tagged BRAF G469A overexpressed in HCT-116 BRAF−/− cells (clone 34), Nano-Glo HiBiT Lytic assay. The method, boiled down: (§1)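 Degradation assay in HCT-116 BRAF−/− cells carrying lentiviral HiBiT-tagged mutant BRAF. The readout is % protein remaining across 1 μM to 0.01 nM compound, and DC50 marks 50% remaining.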

The target in the next assay is T2, BRAF V600E (Homo sapiens, UniProt P15056, V600E).
T2 construct: endogenous C-terminal HiBiT fusion tag on BRAF V600E allele; endogenous in cells; host or cells: A375 clone 1F10 (CRISPR-Cas9 knock-in of the HiBiT tag; parental A375 from ATCC)
T2 sequence (P15056 whole entry V600E, the tested form may be a part): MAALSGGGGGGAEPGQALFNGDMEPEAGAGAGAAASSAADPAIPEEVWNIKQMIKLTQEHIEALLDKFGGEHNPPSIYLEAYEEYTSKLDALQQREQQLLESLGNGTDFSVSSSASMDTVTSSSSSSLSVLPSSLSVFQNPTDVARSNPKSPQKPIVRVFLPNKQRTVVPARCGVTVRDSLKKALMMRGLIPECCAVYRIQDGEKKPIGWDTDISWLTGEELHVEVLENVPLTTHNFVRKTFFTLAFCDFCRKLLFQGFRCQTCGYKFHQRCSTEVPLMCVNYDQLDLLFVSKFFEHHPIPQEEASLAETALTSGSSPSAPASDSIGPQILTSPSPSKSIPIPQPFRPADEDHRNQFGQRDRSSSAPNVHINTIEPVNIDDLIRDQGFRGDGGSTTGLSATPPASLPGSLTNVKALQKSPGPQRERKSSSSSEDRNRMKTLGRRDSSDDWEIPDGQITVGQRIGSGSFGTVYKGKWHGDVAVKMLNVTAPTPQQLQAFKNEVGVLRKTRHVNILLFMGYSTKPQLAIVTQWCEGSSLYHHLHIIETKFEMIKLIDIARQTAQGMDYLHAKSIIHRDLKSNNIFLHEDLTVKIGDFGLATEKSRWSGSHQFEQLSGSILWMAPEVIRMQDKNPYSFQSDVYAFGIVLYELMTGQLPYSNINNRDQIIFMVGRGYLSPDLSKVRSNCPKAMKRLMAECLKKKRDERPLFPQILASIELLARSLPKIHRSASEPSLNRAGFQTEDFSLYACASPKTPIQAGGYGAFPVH
In words: BRAF HiBiT degradation assay, C-terminal HiBiT-tagged BRAF V600E A375 cells (clone 1F10), Nano-Glo HiBiT Lytic assay. As to conditions: for Dmax: A-375. The method, boiled down:
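Using CRISPR-engineered A375 cells that carry a C-terminal HiBiT tag on endogenous BRAF V600E, remaining protein was quantified by lytic luminescence relative to DMSO-treated cells, with wildtype A375 as the background control. DC50 denotes the concentration giving 50% degradation.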

A further assay deals with T3, BRAF D594G (Homo sapiens, UniProt P15056, D594G).
T3 construct: Horizon Discovery (HCT-116 BRAF−/− cells); host or cells: HCT-116 BRAF−/− cells, clone 63, lentiviral transduction
T3 sequence (P15056 whole entry D594G): as the sequence (P15056 whole entry V600E, the tested form may be a part) above, with D594G, E600V counted along it
In words: BRAF HiBiT degradation assay, C-terminal HiBiT-tagged BRAF D594G overexpressed in HCT-116 BRAF−/− cells (clone 63), Nano-Glo HiBiT Lytic assay. The procedure, abridged:
as §1

In the next assay the target is T4, BRAF G466V (Homo sapiens, UniProt P15056, G466V).
T4 construct: Horizon Discovery (HCT-116 BRAF−/− cells); host or cells: HCT-116 BRAF−/− cells, clone 8, lentiviral transduction
T4 sequence (P15056 whole entry G466V): as the sequence (P15056 whole entry V600E, the tested form may be a part) above, with G466V, E600V counted along it
The assay can be described thus: BRAF HiBiT degradation assay, C-terminal HiBiT-tagged BRAF G466V overexpressed in HCT-116 BRAF−/− cells (clone 8), Nano-Glo HiBiT Lytic assay. The method, boiled down:
as §1

The mark [1] stands for this setting: Class 2, BRAF G469A, DC50 at 50%: fitted conc. at Y=50.
Setting [2] is: HCT-116, Class 2, BRAF G469A, percentage protein degraded at maximal compound effect relative to DMSO.
Setting [3] is: A375 (BRAF V600E), DC50 at 50%: fitted conc. at Y=50.
Setting [4] is: A375 (BRAF V600E), percentage protein degraded at maximal compound effect relative to DMSO.
The mark [5] stands for this setting: BRAF D594G, DC50 at 50%: fitted conc. at Y=50.
Where [6] appears, read: HCT-116, BRAF D594G, percentage protein degraded at maximal compound effect relative to DMSO.
The mark [7] stands for this setting: BRAF G466V, DC50 at 50%: fitted conc. at Y=50.
Where [8] appears, read: HCT-116, BRAF G466V, percentage protein degraded at maximal compound effect relative to DMSO.
The mark [9] stands for this setting: BRAF G469A (Class 2), HCT-116 BRAF−/− cells, DC50 at 50% degradation.
[10] abbreviates: BRAF G469A (Class 2), HCT-116 BRAF−/− cells, observed Dmax relative to DMSO control.
The mark [11] stands for this setting: A375 (BRAF V600E, Class 1), DC50 at 50% degradation.
[12] abbreviates: A375 (BRAF V600E, Class 1), observed Dmax, % protein degraded relative to DMSO control.
The mark [13] stands for this setting: BRAF D594G (Class 3), HCT-116 BRAF−/− cells, DC50 at 50% degradation.
Where [14] appears, read: BRAF D594G (Class 3), HCT-116 BRAF−/− cells, observed Dmax relative to DMSO control.
Setting [15] is: BRAF G466V (Class 3), HCT-116 BRAF−/− cells, DC50 at 50% degradation.
Setting [16] is: BRAF G466V (Class 3), HCT-116 BRAF−/− cells, observed Dmax relative to DMSO control.

T1 sequence (P15056 whole entry G469A): as the sequence (P15056 whole entry V600E, the tested form may be a part) above, with G469A, E600V counted along it

`CCCS(=O)(=O)Nc1cccc(-c2nc(C(C)(C)C)sc2-c2ccnc(Nc3ccc(C4CCN(C(=O)[C@@H]5CCN(c6ccc(C7CCC(=O)NC7=O)cn6)C5)CC4)cc3)n2)c1F` (mixture of isomers) [Compound 164, N-[3-(2-tert-butyl-5-{2-[(4-{1-[(3R)-1-{5-[(3RS)-2,6-dioxopiperidin-3-yl]pyridin-2-yl}pyrrolidine-3-carbonyl]piperidin-4-yl}phenyl)amino]pyrimidin-4-yl}-1,3-thiazol-4-yl)-2-fluorophenyl]propane-1-sulfonamide]: the DC50 at BRAF G469A (setting [1]) was over 500 nM; on BRAF V600E (setting [3]), under 10 nM; at BRAF D594G (setting [5]), over 500 nM; at BRAF G466V (setting [7]) it was over 500 nM. Besides, the maximal degradation (Dmax) on BRAF G469A (setting [2]) is under 30%; at BRAF V600E (setting [4]), over 70%; on BRAF D594G (setting [6]), 30 to 70%; on BRAF G466V (setting [8]), 30 to 70%.

For `CCCS(=O)(=O)Nc1cccc(-c2nc(C3CCN(CC4CCN(C(=O)[C@H]5CC[C@H](Oc6ccc(C7CCC(=O)NC7=O)cc6)CC5)CC4)CC3)sc2-c2ccnc(N)n2)c1F` (mixture of isomers) [Compound 224, N-{3-[5-(2-aminopyrimidin-4-yl)-2-[1-({1-[(1r,4r)-4-{4-[(3RS)-2,6-dioxopiperidin-3-yl]phenoxy}cyclohexanecarbonyl]piperidin-4-yl}methyl)piperidin-4-yl]-1,3-thiazol-4-yl]-2-fluorophenyl}propane-1-sulfonamide], the 50% degradation concentration (DC50) at BRAF G469A (setting [1]) was over 500 nM; at BRAF V600E (setting [3]), under 10 nM; at BRAF D594G (setting [5]), over 500 nM; at BRAF G466V (setting [7]), over 500 nM. Also, the maximal degradation (Dmax) on BRAF G469A (setting [2]) is under 30%; at BRAF V600E (setting [4]) it was over 70%; on BRAF D594G (setting [6]), 30 to 70%; at BRAF G466V (setting [8]) it was 30 to 70%.

`CCCS(=O)(=O)Nc1cccc(-c2nc(C(C)(C)C)sc2-c2ccnc(Nc3ccc(N4CCN(C(=O)CN5CCc6cc(C7CCC(=O)NC7=O)ccc6C5)CC4)c(F)c3)n2)c1F` (racemic) [Compound 51, Rac-N-(3-{2-tert-butyl-5-[2-({4-[4-(2-{6-[(3R)-2,6-dioxopiperidin-3-yl]-1,2,3,4-tetrahydroisoquinolin-2-yl}acetyl)piperazin-1-yl]-3-fluorophenyl}amino)pyrimidin-4-yl]-1,3-thiazol-4-yl}-2-fluorophenyl)propane-1-sulfonamide]: the 50% degradation concentration (DC50) at BRAF G469A (setting [1]) is over 500 nM; on BRAF V600E (setting [3]), under 10 nM; on BRAF D594G (setting [5]), 50 to 500 nM; on BRAF G466V (setting [7]), 50 to 500 nM. Also, the maximal degradation (Dmax) at BRAF G469A (setting [2]) is 30 to 70%; at BRAF V600E (setting [4]), over 70%; on BRAF D594G (setting [6]) it was 30 to 70%; on BRAF G466V (setting [8]), 30 to 70%.

For `CCCS(=O)(=O)Nc1cccc(-c2nc(C3CCN(C(=O)C4CCN(CC5CCN(c6ccc(C7CCC(=O)NC7=O)cn6)CC5)CC4)CC3)sc2-c2ccncn2)c1F` (racemic) [Compound 221, Rac-N-{3-[2-(1-{1-[(1-{5-[(3R)-2,6-dioxopiperidin-3-yl]pyridin-2-yl}piperidin-4-yl)methyl]piperidine-4-carbonyl}piperidin-4-yl)-5-(pyrimidin-4-yl)-1,3-thiazol-4-yl]-2-fluorophenyl}propane-1-sulfonamide], the 50% degradation concentration (DC50) on BRAF G469A (setting [1]) was over 500 nM; at BRAF V600E (setting [3]) it was 10 to 50 nM; at BRAF D594G (setting [5]), over 500 nM; at BRAF G466V (setting [7]), over 500 nM. Besides, the Dmax at BRAF G469A (setting [2]) was 30 to 70%; on BRAF V600E (setting [4]), over 70%; at BRAF D594G (setting [6]) it was 30 to 70%; on BRAF G466V (setting [8]), 30 to 70%.

On to `CCCS(=O)(=O)Nc1cccc(-c2nc(C(C)(C)C)sc2-c2ccnc(Nc3cnn(CC4CCN(C(=O)CN5CCC(c6ccc(NC7CCC(=O)NC7=O)cc6)CC5)CC4)c3)n2)c1F` (racemic) [Compound 116, Rac-N-(3-{2-tert-butyl-5-[2-({1-[(1-{2-[4-(4-{[(3R)-2,6-dioxopiperidin-3-yl]amino}phenyl)piperidin-1-yl]acetyl}piperidin-4-yl)methyl]-1H-pyrazol-4-yl}amino)pyrimidin-4-yl]-1,3-thiazol-4-yl}-2-fluorophenyl)propane-1-sulfonamide], for which the DC50 at BRAF G469A (setting [1]) was over 500 nM; at BRAF V600E (setting [3]), 10 to 50 nM; at BRAF D594G (setting [5]), over 500 nM; at BRAF G466V (setting [7]) it was over 500 nM. For the same compound, the Dmax was under 30% at BRAF G469A (setting [2]), over 70% at BRAF V600E (setting [4]), under 30% on BRAF D594G (setting [6]) and 30 to 70% on BRAF G466V (setting [8]).

As for `O=C1CC[C@H](c2ccc(N3CCC(CN4CCN(c5ccc(-n6cc(-c7cc(Cl)cc(NS(=O)(=O)N8CC[C@@H](F)C8)c7F)c(-c7ccncc7)n6)cc5)CC4)CC3)nc2)C(=O)N1` [Compound 264, (R)—N-(5-chloro-3-(1-(4-(4-((1-(5-((R)-2,6-dioxopiperidin-3-yl)pyridin-2-yl)piperidin-4-yl)methyl)piperazin-1-yl)phenyl)-3-(pyridin-4-yl)-1H-pyrazol-4-yl)-2-fluorophenyl)-3-fluoropyrrolidine-1-sulfonamide], the DC50 on BRAF G469A (setting [9]), on BRAF V600E (setting [11]), on BRAF D594G (setting [13]) and at BRAF G466V (setting [15]) was under 10 nM each time. In addition, the Dmax on BRAF G469A (setting [10]), at BRAF V600E (setting [12]), at BRAF D594G (setting [14]) and at BRAF G466V (setting [16]) was over 70% each time.

Regarding `CCCS(=O)(=O)Nc1cccc(-c2nc(C3CCN(C(=O)C4CCN(C(=O)C5CCN(c6ccc(C7CCC(=O)NC7=O)cn6)CC5)CC4)CC3)sc2-c2ccnc(NC(C)C)n2)c1F` (racemic) [Compound 206, Rac-N-[3-(2-{1-[1-(1-{5-[(3R)-2,6-dioxopiperidin-3-yl]pyridin-2-yl}piperidine-4-carbonyl)piperidine-4-carbonyl]piperidin-4-yl}-5-{2-[(propan-2-yl)amino]pyrimidin-4-yl}-1,3-thiazol-4-yl)-2-fluorophenyl]propane-1-sulfonamide], the half-maximal degradation concentration (DC50) on BRAF G469A (setting [1]) was over 500 nM; on BRAF V600E (setting [3]) it was under 10 nM; at BRAF D594G (setting [5]) it was under 10 nM; on BRAF G466V (setting [7]), 10 to 50 nM. Further, the Dmax on BRAF G469A (setting [2]) was 30 to 70%; at BRAF V600E (setting [4]), over 70%; on BRAF D594G (setting [6]), 30 to 70%; at BRAF G466V (setting [8]), 30 to 70%.

On to `CCCS(=O)(=O)Nc1cccc(-c2nc(-c3ccc(N4CCN(CC5CCN(c6ccc([C@@H]7CCC(=O)NC7=O)cc6)CC5)CC4)cc3)sc2-c2ccnc(N)n2)c1F` [Compound 186, N-{3-[5-(2-aminopyrimidin-4-yl)-2-(4-{4-[(1-{4-[(3S)-2,6-dioxopiperidin-3-yl]phenyl}piperidin-4-yl)methyl]piperazin-1-yl}phenyl)-1,3-thiazol-4-yl]-2-fluorophenyl}propane-1-sulfonamide], for which the 50% degradation concentration (DC50) at BRAF G469A (setting [1]) was over 500 nM; on BRAF V600E (setting [3]) it was 10 to 50 nM; at BRAF D594G (setting [5]) it was over 500 nM; on BRAF G466V (setting [7]), over 500 nM. Also, the Dmax at BRAF G469A (setting [2]) was under 30%; at BRAF V600E (setting [4]), over 70%; at BRAF D594G (setting [6]) it was 30 to 70%; at BRAF G466V (setting [8]) it was 30 to 70%.

As for `O=C1CC[C@H](c2ccc(N3CCC(CN4CCN(c5ccc(-n6cc(-c7cc(Cl)cc(NS(=O)(=O)N8CCCC8)c7F)c(-c7ccncc7)n6)cc5F)CC4)CC3)cc2)C(=O)N1` [Compound 364, N-{5-chloro-3-[1-(4-{4-[(1-{4-[(3R)-2,6-dioxopiperidin-3-yl]phenyl}piperidin-4-yl)methyl]piperazin-1-yl}-3-fluorophenyl)-3-(pyridin-4-yl)-1H-pyrazol-4-yl]-2-fluorophenyl}pyrrolidine-1-sulfonamide], the DC50 was 10 to 50 nM on BRAF G469A (setting [9]), 10 to 50 nM at BRAF V600E (setting [11]), under 10 nM at BRAF D594G (setting [13]) and under 10 nM at BRAF G466V (setting [15]). In addition, the Dmax at BRAF G469A (setting [10]), at BRAF V600E (setting [12]), at BRAF D594G (setting [14]) and on BRAF G466V (setting [16]) was over 70% in each case.
